Data set [1] in a line: GI S9 stability (Ex. Z), human intestinal S9. The class given is in vitro ADME. The note with it: pooled intestinal S9 fractions; human intestinal S9, 1.0 mg/mL protein, 2 μM substrate, pH 7.4; read-out: GIS9 Human T½ (per Ex. Z). Here is the method:
Example Z: GI S9 stability data:
Stock solutions of test compounds in dimethyl sulfoxide (DMSO) having a final concentration of 10 mM were prepared and used in all experiments. Sekisui XenoTech (Kansas City, KS) provided pooled intestinal S9 fractions. All other chemicals were purchased from Sigma-Aldrich (St. Louis, MO) or VWR (West Chester, PA). Internal Standard/Quench (IS/Q) used to stop reactions was 100 nM labetalol in (by volume) methanol (10%) and acetonitrile (90%).
Stability in Intestinal S9 Fractions: Duplicate aliquots of test compound or positive control substrate were added to S9 stock diluted with phosphate buffered saline (137 mM NaCl, 2.7 mM KCl, 10 mM phosphate buffer), pH 7.4, to obtain a protein concentration of 1.0 mg/mL. The metabolic reactions were initiated by the addition of the substrates to the S9 reaction mixture to a final concentration of 2 μM. At 0, 10, 20, 30, 60 and 120 min, 25 μL aliquots of the reaction mixture were transferred to plates containing 225 μl of IS/Q solution. After quenching, the plates were centrifuged at 3000×g for 30 minutes. 150 μL aliquots of each supernatant were dried down then reconstituted with 300 μL water. Aliquots (10 μL) of the prepared samples were analyzed on a Thermo Q-Exactive mass spectrometer as described below.
Liquid Chromatography—Mass Spectrometry: Quantification of test compounds and control substrate was performed by analyte/internal standard peak area ratio (PAR) values measured on a Thermo Q-Exactive mass spectrometer coupled to a Dionex UltiMate 3000 HPLC with a Leap Technologies HTC PAL autosampler. The column used for analysis was a Waters Acquity BEH C18 (1.7 μm particle size, 2.1×50 mm). Mobile phase A consisted of 0.1% (v/v) formic acid in water. Mobile phase B consisted of 0.1% (v/v) formic acid in acetonitrile. Elution of analytes was achieved by a series of linear gradients varying the proportions of A and B. The mass spectrometer was calibrated on a weekly basis and mass tolerance of 5 ppm was used.
Metabolic stabilities in S9 fractions were determined by measuring the rates of disappearance of test compound and positive control substrate.
Data (% of substrate remaining) were plotted on a semi-log scale and fitted using an exponential decline model:
Where Ct—% of substrate remaining at time=t; C0—% of substrate remaining at time=0; t—time; T½—half-life The Half-life (T½) is determined by the following equation: […]
Assuming a first-order reaction, the slope (k) is extrapolated from the aforementioned plotted data.

The test system of data set [2] is Respiratory syncytial virus recombinant with luciferase (RSV-Luc5) in HEp-2 cells. Briefly: HEp-2 RSV-Luc5 384-well Assay (EC50 RSVFLUC Hep2-384 v2, Ex. V). To be noted: human respiratory syncytial virus, HEp-2, 72 h, read-out: EC50 RSV FLuc Hep-2 384 V2 (per Ex. V). Format: cell-based. The method in brief: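 HEp-2 cells (4,000/well) with 10-point 1:3 compound dilutions were infected with RSV-Luc5 at MOI 0.5 and incubated 3 days at 37 °C. Replication was read by One-Glo luminescence and normalized to remdesivir (0%) and DMSO (100%) controls. EC50 is the concentration reducing replication by 50%, from non-linear regression.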

Take `N#C[C@]1(COC(=O)[C@H]2CCC(=O)O2)O[C@@H](c2ccc3c(N)ncnn23)[C@H](O)[C@@H]1O` [Compound 25, ((2R,3S,4R,5S)-5-(4-aminopyrrolo[2,1-f][1,2,4]triazin-7-yl)-2-cyano-3,4-dihydroxytetrahydrofuran-2-yl)methyl (R)-5-oxotetrahydrofuran-2-carboxylate]: the half-life at 2 μM in data set [1] came out at 3 min. Also, in data set [2], the EC50 was 10.3 µM.
The corresponding values for `Cc1ccc(C(=O)OC[C@@]2(C#N)O[C@@H](c3ccc4c(N)ncnn34)[C@H](O)[C@@H]2O)cc1` [Compound 14, ((2R,3S,4R,5S)-5-(4-aminopyrrolo[2,1-f][1,2,4]triazin-7-yl)-2-cyano-3,4-dihydroxytetrahydrofuran-2-yl)methyl 4-methylbenzoate] are 25 min and 22 µM.
`N#C[C@]1(COC(=O)C2CCCC2)O[C@@H](c2ccc3c(N)ncnn23)[C@H](O)[C@@H]1O` [Compound 18, ((2R,3S,4R,5S)-5-(4-aminopyrrolo[2,1-f][1,2,4]triazin-7-yl)-2-cyano-3,4-dihydroxytetrahydrofuran-2-yl)methyl cyclopentanecarboxylate]: the half-life at 2 μM in data set [1] turned out to be 8 min. Besides, the EC50 in data set [2] was found to be 23.3 µM.
On to `CC1(CC(=O)OC[C@@]2(C#N)O[C@@H](c3ccc4c(N)ncnn34)[C@H](O)[C@@H]2O)CCC1` [Compound 33, ((2R,3S,4R,5S)-5-(4-aminopyrrolo[2,1-f][1,2,4]triazin-7-yl)-2-cyano-3,4-dihydroxytetrahydrofuran-2-yl)methyl 2-(1-methylcyclobutyl)acetate], for which the half-life at 2 μM in data set [1] is 154 min. Besides, the EC50 in data set [2] stood at 23.4 µM.

What is called EC50 is the concentration that produces a half-maximal response.

These data come from patent US20240199676A1, “ANTIVIRAL COMPOUNDS AND METHODS OF MAKING AND USING THE SAME” (Gilead Sciences, Inc., priority 2022, published 2024).
